# ChEMBL document CHEMBL3886657, “Imidazopyridin-2-one derivatives” (2016)
# Target: Metabotropic glutamate receptor 2 (Homo sapiens, UniProt Q14416)
# Assay: [35S]-GTPγS Assay: The stimulation of [35S]-GTPγS binding is a common functional assay to monitor Gαi-coupled receptor in native and recombinant receptor membrane preparation. Membrane from cells stably expressing hmGlu2 CHO-K1 (50 μg) are incubated in a 96 well plate for 1 hour in the presence of GTPγS35 (0.05 nM), GDP (5 μM) and compounds. The reaction is stopped by rapid filtration over Unifilter GF/B plate (Packard, Bioscience, Meriden Conn.) using a 96-well cell harvester (Brandel Gaithersburg, Md.). The filter plates are counted using Topcount counter (Packard, Bioscience, Meriden Conn., USA). When compounds are evaluated as potentiators they are tested in the presence of glutamate (1 μM).
# Metabotropic glutamate receptor 2, sequence (Q14416 whole entry): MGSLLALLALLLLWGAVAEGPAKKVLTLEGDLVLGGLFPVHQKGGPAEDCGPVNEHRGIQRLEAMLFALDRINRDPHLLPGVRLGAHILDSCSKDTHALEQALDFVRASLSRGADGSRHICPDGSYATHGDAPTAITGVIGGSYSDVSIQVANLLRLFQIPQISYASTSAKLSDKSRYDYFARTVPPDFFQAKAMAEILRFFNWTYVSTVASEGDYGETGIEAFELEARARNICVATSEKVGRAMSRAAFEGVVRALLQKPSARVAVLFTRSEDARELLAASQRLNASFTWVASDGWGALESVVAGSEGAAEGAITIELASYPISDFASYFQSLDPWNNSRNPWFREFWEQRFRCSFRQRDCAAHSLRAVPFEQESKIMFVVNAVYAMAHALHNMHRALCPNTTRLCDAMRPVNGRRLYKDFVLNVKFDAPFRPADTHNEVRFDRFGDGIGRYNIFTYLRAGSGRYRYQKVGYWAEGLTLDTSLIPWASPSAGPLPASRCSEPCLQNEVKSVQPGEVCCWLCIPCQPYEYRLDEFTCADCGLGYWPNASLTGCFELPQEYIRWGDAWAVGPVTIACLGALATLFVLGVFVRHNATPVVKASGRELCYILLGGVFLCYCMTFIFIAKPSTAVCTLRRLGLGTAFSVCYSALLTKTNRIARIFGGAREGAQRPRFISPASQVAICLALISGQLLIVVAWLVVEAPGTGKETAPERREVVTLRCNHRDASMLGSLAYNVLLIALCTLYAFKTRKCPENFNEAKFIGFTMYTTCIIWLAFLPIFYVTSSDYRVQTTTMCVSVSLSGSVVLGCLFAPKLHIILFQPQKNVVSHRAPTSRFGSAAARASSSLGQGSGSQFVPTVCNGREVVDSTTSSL
row,SMILES,EC50 [nM]
1,Cn1c(=O)n(CC(C)(C)C)c2ccc(C3=CC4CCC3CN4C(=O)c3ncco3)nc21 (configuration not stated),17.9
2,Cn1c(=O)n(CC2CC2(F)F)c2ccc(C3=CC4CN(C(=O)c5ncco5)CC4C3)nc21 (configuration not stated),248
3,CC1C(c2ccc3c(n2)N(C)S(=O)(=O)N3CC2CC2(F)F)C1C(C)(C)O (configuration not stated),40.6
4,Cn1c(=O)n(CC2CC2(F)F)c2ccc(C3=CC4CCC3CN4C(=O)c3ccon3)nc21 (configuration not stated),26.6
5,CN1c2nc(C3=CC4CN(C(=O)C(C)(C)O)CC4C3)ccc2N(CC2CC2(F)F)S1(=O)=O (configuration not stated),88.6
6,Cn1c(=O)n(CC(C)(C)C)c2ccc(C3=CC4CN(C(=O)C5(O)CCC5)CC4C3)nc21 (configuration not stated),51.4
7,Cn1c(=O)n(CC(C)(C)C)c2ccc(C3=CC4CCC3CN4C(=O)C3CC3)nc21 (configuration not stated),215
8,Cn1c(=O)n(CC(C)(C)C)c2ccc(C3=CC4CCC3CN4C(=O)c3cccnc3)nc21 (configuration not stated),299
9,Cn1c(=O)n(CC(C)(C)C)c2ccc(C3=CC4CN(C(=O)CO)CC4C3)nc21 (configuration not stated),2820
10,Cn1c(=O)n(CC(C)(C)C)c2ccc(C3=CC4CN(C(=O)c5ncco5)CC4C3)nc21 (configuration not stated),54.7
11,Cn1c(=O)n(CC(C)(C)C)c2ccc(C3=CC4CCC3CN4C(=O)c3csnn3)nc21 (configuration not stated),69.3
12,Cn1c(=O)n(CC(C)(C)C)c2ccc(C3=CC4CCC3CN4C(=O)Cn3cncn3)nc21 (configuration not stated),115
